Results reported in ChEMBL document CHEMBL2385026, “Identification of C-2 hydroxyethyl imidazopyrrolopyridines as potent JAK1 inhibitors with favorable physicochemical properties and high selectivity over JAK2” (J Med Chem, 2013).

What was measured:
[1] = target: T1, Tyrosine-protein kinase JAK2 (Homo sapiens, UniProt O60674)
[2] = target: T1, Tyrosine-protein kinase JAK2; assay type: cell-based, TF-1
[3] = Apparent permeability across apical to basolateral side in dog MDCK cells; assay type: ADME, cell-based, Canis lupus familiaris
[4] = Hepatic clearance in human hepatocytes after 1 to 4 hrs by LC/MS/MS analysis; assay type: ADME, cell-based, Liver, Hepatocyte
[5] = target: T2, Tyrosine-protein kinase JAK1 (Homo sapiens, UniProt P23458)
T2 sequence (P23458 whole entry): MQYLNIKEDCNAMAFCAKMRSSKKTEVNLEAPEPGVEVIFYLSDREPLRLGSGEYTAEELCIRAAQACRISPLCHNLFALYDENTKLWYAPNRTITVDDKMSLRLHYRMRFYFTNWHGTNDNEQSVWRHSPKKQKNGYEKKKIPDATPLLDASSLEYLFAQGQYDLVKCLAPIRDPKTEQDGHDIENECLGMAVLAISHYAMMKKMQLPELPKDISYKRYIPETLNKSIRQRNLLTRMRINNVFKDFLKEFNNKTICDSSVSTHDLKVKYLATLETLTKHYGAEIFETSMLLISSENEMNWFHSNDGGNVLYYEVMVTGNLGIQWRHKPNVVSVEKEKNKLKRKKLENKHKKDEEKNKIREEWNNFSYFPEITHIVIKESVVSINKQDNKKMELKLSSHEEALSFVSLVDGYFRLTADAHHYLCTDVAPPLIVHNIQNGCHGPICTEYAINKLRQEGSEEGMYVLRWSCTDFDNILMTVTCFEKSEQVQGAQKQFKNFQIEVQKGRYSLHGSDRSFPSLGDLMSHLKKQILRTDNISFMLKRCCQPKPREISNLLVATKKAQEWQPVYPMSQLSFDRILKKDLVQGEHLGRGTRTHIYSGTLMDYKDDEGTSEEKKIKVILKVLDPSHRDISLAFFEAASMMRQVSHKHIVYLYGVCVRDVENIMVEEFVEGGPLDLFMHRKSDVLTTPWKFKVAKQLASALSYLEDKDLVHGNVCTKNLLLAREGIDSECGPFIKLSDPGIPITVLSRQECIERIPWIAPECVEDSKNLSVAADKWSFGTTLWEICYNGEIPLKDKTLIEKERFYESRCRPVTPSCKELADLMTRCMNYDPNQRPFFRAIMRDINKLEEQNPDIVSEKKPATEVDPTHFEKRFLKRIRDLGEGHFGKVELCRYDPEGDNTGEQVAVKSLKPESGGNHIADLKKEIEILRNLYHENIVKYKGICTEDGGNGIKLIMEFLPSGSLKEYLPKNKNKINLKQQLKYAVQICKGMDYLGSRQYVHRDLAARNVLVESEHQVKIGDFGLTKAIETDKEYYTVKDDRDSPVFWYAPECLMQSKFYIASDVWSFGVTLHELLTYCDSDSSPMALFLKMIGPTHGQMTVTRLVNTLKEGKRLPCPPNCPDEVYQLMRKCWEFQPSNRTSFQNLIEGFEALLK

[6] = target: T2, Tyrosine-protein kinase JAK1; remark: listed apart in the source
[7] = Hepatic clearance in human liver microsomes by LC/MS/MS analysis; assay type: ADME, Microsome
[8] = target: T2, Tyrosine-protein kinase JAK1; remark: listed apart in the source

T1 sequence (O60674 whole entry): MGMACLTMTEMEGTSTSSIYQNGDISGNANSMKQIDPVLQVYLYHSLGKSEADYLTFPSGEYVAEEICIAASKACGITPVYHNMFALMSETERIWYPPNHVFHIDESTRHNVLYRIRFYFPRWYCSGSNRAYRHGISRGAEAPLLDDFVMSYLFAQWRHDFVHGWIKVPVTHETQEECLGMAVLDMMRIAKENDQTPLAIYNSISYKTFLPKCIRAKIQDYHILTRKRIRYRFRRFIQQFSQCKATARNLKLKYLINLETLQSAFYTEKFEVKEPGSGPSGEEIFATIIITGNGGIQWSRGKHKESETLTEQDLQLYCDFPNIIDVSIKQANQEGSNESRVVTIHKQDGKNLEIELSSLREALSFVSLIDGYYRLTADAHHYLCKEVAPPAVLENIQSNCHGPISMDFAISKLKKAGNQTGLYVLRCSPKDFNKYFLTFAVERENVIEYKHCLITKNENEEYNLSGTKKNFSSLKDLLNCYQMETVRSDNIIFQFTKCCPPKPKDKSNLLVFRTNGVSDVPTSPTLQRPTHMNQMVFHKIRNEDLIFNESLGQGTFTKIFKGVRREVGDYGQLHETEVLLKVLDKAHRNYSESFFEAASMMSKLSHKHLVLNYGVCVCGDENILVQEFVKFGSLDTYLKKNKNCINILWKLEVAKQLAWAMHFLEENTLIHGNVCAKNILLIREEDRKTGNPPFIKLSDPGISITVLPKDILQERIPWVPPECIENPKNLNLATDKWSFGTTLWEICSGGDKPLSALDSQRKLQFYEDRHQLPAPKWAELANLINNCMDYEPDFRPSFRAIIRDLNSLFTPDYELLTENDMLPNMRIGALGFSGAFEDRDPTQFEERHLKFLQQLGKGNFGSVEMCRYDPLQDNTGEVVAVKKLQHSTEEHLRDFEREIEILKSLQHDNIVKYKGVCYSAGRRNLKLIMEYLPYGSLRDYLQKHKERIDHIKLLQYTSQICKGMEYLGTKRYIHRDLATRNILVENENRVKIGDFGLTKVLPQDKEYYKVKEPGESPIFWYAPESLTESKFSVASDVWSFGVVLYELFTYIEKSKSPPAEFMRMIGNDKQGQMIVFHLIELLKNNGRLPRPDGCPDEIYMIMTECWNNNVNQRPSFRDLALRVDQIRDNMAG

Structure (SMILES)	Ki [1] [nM]	EC50 [2] [nM]	Papp A→B [3] [×10⁻⁶ cm/s]	CLhep predicted [4] [mL/min/kg]	EC50 [5] [nM]	EC50 [6] [nM]	CLhep predicted [7] [mL/min/kg]	Ki [8] [nM]
C[C@@H](O)c1nc2cnc3[nH]ccc3c2n1C1CCCCC1	21	1700	23	–	–	–	–	–
C[C@@H](O)c1nc2cnc3[nH]ccc3c2n1C1CCOCC1	–	–	–	–	–	–	–	31
C[C@@H](O)c1nc2cnc3[nH]ccc3c2n1[C@H]1CC[C@@H](O)CC1	–	–	–	–	380	–	2.1	12
CC(C)(O)c1nc2cnc3[nH]ccc3c2n1C1CCCCC1	76	4400	19	–	330	–	–	13
C[C@@H](O)c1nc2cnc3[nH]ccc3c2n1[C@@H]1CCCN(C(=O)CC(F)(F)F)C1	–	–	–	–	–	–	5.2	43
CC[C@@H](O)c1nc2cnc3[nH]ccc3c2n1C1CCCCC1	–	–	22	12	–	–	7.6	–
C[C@@H](O)c1nc2cnc3[nH]ccc3c2n1[C@@H]1CCC[C@@H](O)C1	–	–	1.1	–	120	140	–	–
C[C@@H](O)c1nc2cnc3[nH]ccc3c2n1[C@@H]1CCCN(C(=O)CC#N)C1	–	–	0.2	–	8200	–	1	5.2
C[C@@H](O)c1nc2cnc3[nH]ccc3c2n1[C@@H]1CCCOC1	–	–	–	–	–	–	4.6	68
C[C@@H](O)c1nc2cnc3[nH]ccc3c2n1[C@H]1CC[C@@H](NCC(F)(F)F)CC1	–	–	–	16	–	–	18	53
OC[C@H](O)c1nc2cnc3[nH]ccc3c2n1C1CCCCC1	–	–	–	–	320	–	–	7.2
CO[C@H]1CC[C@H](n2c([C@@H](C)O)nc3cnc4[nH]ccc4c32)CC1	–	–	6.7	5.9	–	–	1.3	–
C[C@H](O)c1nc2cnc3[nH]ccc3c2n1C1CCCCC1	90	5300	–	–	–	–	–	–
C[C@@H](O)c1nc2cnc3[nH]ccc3c2n1[C@H]1CC[C@H](O)CC1	–	–	–	–	410	730	1.9	–

More lines, now with the values ahead:

Ki [1] [nM]	EC50 [2] [nM]	Papp A→B [3] [×10⁻⁶ cm/s]	CLhep predicted [4] [mL/min/kg]	EC50 [5] [nM]	EC50 [6] [nM]	CLhep predicted [7] [mL/min/kg]	Ki [8] [nM]	Structure (SMILES)
–	–	2.8	1.1	57	62	3.6	1.1	C[C@@H](O)c1nc2cnc3[nH]ccc3c2n1[C@H]1CC[C@H](NCC(F)F)CC1
–	–	16	6.8	69	220	1.8	1.6	OC[C@@H](O)c1nc2cnc3[nH]ccc3c2n1C1CCCCC1
–	–	1.9	6.8	510	320	4.2	3.4	C[C@@H](O)c1nc2cnc3[nH]ccc3c2n1C1CCN(CCC#N)CC1
–	–	10	3.5	74	82	5.6	1.2	C[C@@H](O)c1nc2cnc3[nH]ccc3c2n1[C@H]1CC[C@H](NCC(F)(F)F)C1
18	1500	23	17	130	1500	5.3	3.5	OCCc1nc2cnc3[nH]ccc3c2n1C1CCCCC1
–	–	15	3.7	88	330	2.9	2	CCN1CCC(n2c([C@@H](C)O)nc3cnc4[nH]ccc4c32)C(F)(F)C1 (some centres undefined)
–	–	4.2	5.6	49	78	4.3	0.9	C[C@@H](O)c1nc2cnc3[nH]ccc3c2n1[C@H]1CC[C@@H](C#N)CC1
–	–	25	8.5	110	820	9.2	2.6	C[C@@H](O)c1nc2cnc3[nH]ccc3c2n1C1CCN(CC(F)(F)F)CC1
